The record followed here is patent publication US9789096B2, “Methods and compositions for selective and targeted cancer therapy” (Board of Regents of the University of Texas System, priority 2013, dated 2017).

Structures are written as SMILES.

The test system of one assay is H2009. As to the kind of experiment: Cell viability dose-response, H2009. In kind it is cell-based, human. The settings on record: Homo sapiens, NCI-H2009, Table 8; 12-point dose-response starting at 50 micromolar. The method, then: (§1) FIG. 6A. […] Cell viability is plotted vs. compound concentration. Compound was added to cells plated at 15% confluence in 96-well plates in RPMI-1640 media supplemented with 5% Fetal Bovine Serum and 2 mM L-Glutamine. After 4 days of incubation, ATP levels were measured using Cell Titer Glo (Promega). Data are presented as the average of 2 replicates ±SEM.
(§2) Selectivity may be measured by the half maximal inhibitory concentration (IC50), which, as used herein, is a measure of the effectiveness of a compound in killing cells. This quantitative measure indicates how much of a particular compound is needed to kill a particular cell population by half (e.g., as indicated by the amount of ATP). […] The IC50 can be determined by constructing a dose-response curve. The lower the IC50, the higher the potency, and the greater the difference between IC50 values for different cell lines (e.g., sensitive lines vs. insensitive lines, and sensitive lines vs. normal lines) the greater the selectivity. […]
(§3) With this information, we synthesized and tested a series of small molecules derived in conception from the oxalamide and chromone scaffold including N-acyl ureas, as shown in Tables 6-8. Each compound was tested in a 12-point dose-response study starting at 50 micromolar and decreasing in 3-fold increments to sub-nanomolar concentrations, in duplicate. Additionally, one or more additional cell line was tested in the same way.
Turning to `O=c1c(Oc2ccccc2F)coc2cc(OCc3cnn(-c4cccc(F)c4)c3)ccc12` [SW208467], the AC50 worked out at 12.6 µM.

Turning to `O=c1c(Oc2ccccc2F)coc2cc(OCc3cnn(-c4ccc(F)cc4)c3)ccc12` [SW208468], the AC50 worked out at 22.3 µM.

With `O=c1c(Oc2ccccc2F)coc2cc(OCc3cnn(-c4ccc(Cl)cc4)c3)ccc12` [SW208469], the AC50 was found to be 16.5 µM.

The same assay, now with this note: Homo sapiens, NCI-H2009; 12-point dose-response starting at 50 micromolar, 3-fold increments, in duplicate; read-out: toxicity data, H2009.
Turning to `COc1ccc(CCNC(=O)NC(=O)c2ccc(C(=O)N3CCOCC3)cc2)cc1` [SW208408-1-A], the IC50 stood at 46.9 µM.

`COc1ccc(CCNC(=O)NC(=O)c2ccc(C(=O)Nc3ccccc3OC)cc2)cc1` [SW208409-1-A]: the IC50 is at least 49.5 µM.

Consider `COc1ccc(CCNC(=O)NC(=O)c2ccc(C(=O)Nc3cccc(OC)c3)cc2)cc1` [SW208410-1-A], for which the IC50 is 1.37 µM.

In the case of `COc1ccc(CCNC(=O)NC(=O)c2ccc(C(=O)Nc3ccc(OC)cc3)cc2)cc1` [SW208411-1-A], the IC50 was at least 49.5 µM.

Take `COc1ccc(CCNC(=O)NC(=O)c2ccc(C(=O)NCc3ccccc3)cc2)cc1` [SW208412-1-A]: the IC50 stood at 2.14 µM.

Turning to `CNC(=O)c1ccc(C(=O)NC(=O)NCCc2ccc(OC)cc2)cc1` [SW208413-1-A], the IC50 stood at 16.3 µM.

Take `COc1ccc(CCNC(=O)NC(=O)c2ccc(C(=O)N3CCN(C)CC3)cc2)cc1` [SW208414-1-A]: the IC50 was 5.05 µM.

`COc1ccc(CCNC(=O)NC(=O)c2ccc(C(=O)NC3CC3)cc2)cc1` [SW208452-1-A]: the IC50 was determined as 13.1 µM.

For the molecule `COc1ccc(CCNC(=O)NC(=O)c2ccc(C(=O)NC3CCC3)cc2)cc1` [SW208453-1-A], the IC50 stood at 1.63 µM.

Turning to `COc1ccc(CCNC(=O)NC(=O)c2ccc(C(=O)NC3CCCC3)cc2)cc1` [SW208454-1-A], the IC50 was at least 49.5 µM.

`COc1ccc(CCNC(=O)NC(=O)c2ccc(C(=O)N(C)C)cc2)cc1` [SW208455-1-A]: the IC50 was found to be 16.5 µM.

Take `COc1ccc(CCNC(=O)NC(=O)c2ccc(Oc3ccccc3)cc2)cc1` [SW208456-1-A]: the IC50 is at least 49.5 µM.

`COc1ccc(CCNC(=O)NC(=O)c2ccc(OCc3ccccc3)cc2)cc1` [SW208457-1-A]: the IC50 was at least 49.5 µM.

Take `COc1ccc(CCNC(=O)NC(=O)c2ccc(COc3ccccc3)cc2)cc1` [SW208458-1-A]: the IC50 amounted to 0.099 µM.

Take `O=C(NCCc1ccc(O)cc1)NC(=O)c1ccc(C(=O)c2ccccc2)cc1` [SW208459-1-A]: the IC50 worked out at 0.299 µM.

On to `COc1ccc(CCNC(=O)NC(=O)c2ccc(C(O)c3ccccc3)cc2)cc1` (centres unmarked) [SW208460-1-A], for which the IC50 was at least 49.5 µM.

A further assay deals with H2122. Put plainly: Cell viability dose-response, H2122. In kind it is cell-based, human. The settings on record: Homo sapiens, NCI-H2122, 12-point dose-response starting at 50 micromolar, 3-fold increments, in duplicate; read-out: toxicity data, H2122. A digest of the protocol:
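Viability read as total ATP (Cell Titer Glo) following 4 days' compound exposure, with IC50 derived from dose-response curves. Duplicate 12-point series, top concentration 50 micromolar with 3-fold steps, on cells seeded at 15% confluence in RPMI-1640, 5% FBS, 2 mM L-glutamine.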
For `COc1ccc(CCNC(=O)NC(=O)c2ccc(C(=O)N3CCOCC3)cc2)cc1` [SW208408-1-A], the IC50 is at least 49500 nM.

Take `COc1ccc(CCNC(=O)NC(=O)c2ccc(C(=O)Nc3ccccc3OC)cc2)cc1` [SW208409-1-A]: the IC50 worked out at 140 nM.

Consider `COc1ccc(CCNC(=O)NC(=O)c2ccc(C(=O)Nc3cccc(OC)c3)cc2)cc1` [SW208410-1-A], for which the IC50 is at least 49500 nM.

Consider `COc1ccc(CCNC(=O)NC(=O)c2ccc(C(=O)Nc3ccc(OC)cc3)cc2)cc1` [SW208411-1-A], for which the IC50 is at least 49500 nM.

Take `COc1ccc(CCNC(=O)NC(=O)c2ccc(C(=O)NCc3ccccc3)cc2)cc1` [SW208412-1-A]: the IC50 stood at 270 nM.

With `CNC(=O)c1ccc(C(=O)NC(=O)NCCc2ccc(OC)cc2)cc1` [SW208413-1-A], the IC50 is at least 49500 nM.

Turning to `COc1ccc(CCNC(=O)NC(=O)c2ccc(C(=O)N3CCN(C)CC3)cc2)cc1` [SW208414-1-A], the IC50 is at least 49500 nM.

Consider `COc1ccc(CCNC(=O)NC(=O)c2ccc(C(=O)NC3CC3)cc2)cc1` [SW208452-1-A], for which the IC50 is at least 49500 nM.

For the molecule `COc1ccc(CCNC(=O)NC(=O)c2ccc(C(=O)NC3CCC3)cc2)cc1` [SW208453-1-A], the IC50 turned out to be 864 nM.

With `COc1ccc(CCNC(=O)NC(=O)c2ccc(C(=O)NC3CCCC3)cc2)cc1` [SW208454-1-A], the IC50 was 939 nM.

`COc1ccc(CCNC(=O)NC(=O)c2ccc(C(=O)N(C)C)cc2)cc1` [SW208455-1-A]: the IC50 is at least 49500 nM.

Regarding `COc1ccc(CCNC(=O)NC(=O)c2ccc(Oc3ccccc3)cc2)cc1` [SW208456-1-A], the IC50 was 31 nM.

Take `COc1ccc(CCNC(=O)NC(=O)c2ccc(OCc3ccccc3)cc2)cc1` [SW208457-1-A]: the IC50 amounted to 31 nM.

Consider `COc1ccc(CCNC(=O)NC(=O)c2ccc(COc3ccccc3)cc2)cc1` [SW208458-1-A], for which the IC50 is 10 nM.

Take `O=C(NCCc1ccc(O)cc1)NC(=O)c1ccc(C(=O)c2ccccc2)cc1` [SW208459-1-A]: the IC50 stood at 97 nM.

Take `COc1ccc(CCNC(=O)NC(=O)c2ccc(C(O)c3ccccc3)cc2)cc1` (centres unmarked) [SW208460-1-A]: the IC50 was determined as 97 nM.

Still in this assay, the particulars now being: Homo sapiens, NCI-H2122, Table 8; 12-point dose-response starting at 50 micromolar.
`O=c1c(Oc2ccccc2F)coc2cc(OCc3cnn(-c4cccc(F)c4)c3)ccc12` [SW208467]: the AC50 is at least 49.5 µM.

As to `O=c1c(Oc2ccccc2F)coc2cc(OCc3cnn(-c4ccc(F)cc4)c3)ccc12` [SW208468], the AC50 is at least 49.5 µM.

With `O=c1c(Oc2ccccc2F)coc2cc(OCc3cnn(-c4ccc(Cl)cc4)c3)ccc12` [SW208469], the AC50 was at least 49.5 µM.

Staying with this assay, now noted: Homo sapiens, NCI-H2122, Table 9, competitor; read-out: IC50 to H2122 cells.
On to `COc1ccc(CCNC(=O)NC(=O)c2ccc(C(=O)NCc3ccccc3)cc2)cc1` [SW208412-1-A], for which the IC50 is 277 nM.

For the molecule `COc1ccc(CCNC(=O)NC(=O)c2ccc(C(=O)N(C)C)cc2)cc1` [SW208455-1-A], the IC50 is 800 nM.

As for `COc1ccc(CCNC(=O)NC(=O)c2ccc(COc3ccccc3)cc2)cc1` [SW208458-1-A], the IC50 was determined as 4.25 nM.

`O=C(NCCc1ccc(O)cc1)NC(=O)c1ccc(C(=O)c2ccccc2)cc1` [SW208459-1-A]: the IC50 was 37.7 nM.

Consider `COc1ccc(CCNC(=O)NC(=O)c2ccc(C(O)c3ccccc3)cc2)cc1` (centres unmarked) [SW208460-1-A], for which the IC50 was determined as 45.6 nM.

The subject of a further assay is HCC44. Put plainly: Cell viability dose-response, HCC44. As to conditions: Homo sapiens, HCC44, 12-point dose-response starting at 50 micromolar, 3-fold increments, in duplicate; read-out: toxicity data, HCC44. In kind it is cell-based, human. As for the experimental part:
as §1, §2, §3
Regarding `COc1ccc(CCNC(=O)NC(=O)c2ccc(C(=O)N3CCOCC3)cc2)cc1` [SW208408-1-A], the IC50 is at least 49.5 µM.

For the molecule `COc1ccc(CCNC(=O)NC(=O)c2ccc(C(=O)Nc3ccccc3OC)cc2)cc1` [SW208409-1-A], the IC50 was at least 49.5 µM.

With `COc1ccc(CCNC(=O)NC(=O)c2ccc(C(=O)Nc3cccc(OC)c3)cc2)cc1` [SW208410-1-A], the IC50 is at least 49.5 µM.

In the case of `COc1ccc(CCNC(=O)NC(=O)c2ccc(C(=O)Nc3ccc(OC)cc3)cc2)cc1` [SW208411-1-A], the IC50 is at least 49.5 µM.

For the molecule `COc1ccc(CCNC(=O)NC(=O)c2ccc(C(=O)NCc3ccccc3)cc2)cc1` [SW208412-1-A], the IC50 was at least 49.5 µM.

For the molecule `CNC(=O)c1ccc(C(=O)NC(=O)NCCc2ccc(OC)cc2)cc1` [SW208413-1-A], the IC50 was at least 49.5 µM.

In the case of `COc1ccc(CCNC(=O)NC(=O)c2ccc(C(=O)N3CCN(C)CC3)cc2)cc1` [SW208414-1-A], the IC50 is at least 49.5 µM.

On to `COc1ccc(CCNC(=O)NC(=O)c2ccc(C(=O)NC3CC3)cc2)cc1` [SW208452-1-A], for which the IC50 is at least 49.5 µM.

On to `COc1ccc(CCNC(=O)NC(=O)c2ccc(C(=O)NC3CCC3)cc2)cc1` [SW208453-1-A], for which the IC50 is at least 49.5 µM.

As for `COc1ccc(CCNC(=O)NC(=O)c2ccc(C(=O)NC3CCCC3)cc2)cc1` [SW208454-1-A], the IC50 is at least 49.5 µM.

Take `COc1ccc(CCNC(=O)NC(=O)c2ccc(C(=O)N(C)C)cc2)cc1` [SW208455-1-A]: the IC50 is at least 49.5 µM.

On to `COc1ccc(CCNC(=O)NC(=O)c2ccc(Oc3ccccc3)cc2)cc1` [SW208456-1-A], for which the IC50 is 0.022 µM.

As for `COc1ccc(CCNC(=O)NC(=O)c2ccc(OCc3ccccc3)cc2)cc1` [SW208457-1-A], the IC50 is 0.023 µM.

Consider `COc1ccc(CCNC(=O)NC(=O)c2ccc(COc3ccccc3)cc2)cc1` [SW208458-1-A], for which the IC50 amounted to 0.008 µM.

Consider `O=C(NCCc1ccc(O)cc1)NC(=O)c1ccc(C(=O)c2ccccc2)cc1` [SW208459-1-A], for which the IC50 amounted to 0.073 µM.

`COc1ccc(CCNC(=O)NC(=O)c2ccc(C(O)c3ccccc3)cc2)cc1` (centres unmarked) [SW208460-1-A]: the IC50 is 0.084 µM.

The assay is the same for the next values; noted with them: Homo sapiens, HCC44, Table 8; 12-point dose-response starting at 50 micromolar.
For `O=c1c(Oc2ccccc2F)coc2cc(OCc3cnn(-c4cccc(F)c4)c3)ccc12` [SW208467], the AC50 turned out to be 49.5 µM.

For the molecule `O=c1c(Oc2ccccc2F)coc2cc(OCc3cnn(-c4ccc(F)cc4)c3)ccc12` [SW208468], the AC50 came to 49.5 µM. That is a double-digit micromolar value.

For the molecule `O=c1c(Oc2ccccc2F)coc2cc(OCc3cnn(-c4ccc(Cl)cc4)c3)ccc12` [SW208469], the AC50 was 49.5 µM.
